# From patent publication US5506217A, “Phosphonates as anti-cancer agents” (The University of British Columbia, priority 1994, dated 1996)
# Assays:
# P388 tumor cells = assay: colonogenic cell survival assay; type: cell-based; details: Mus musculus, 120 h, P388, read-out: Colonies formed after 5 days (% of control)
# Experimental: (§1) Inhibition of colony formation in soft agar medium (colonogenic cell survival assay) is a more rigorous and direct measurement of cell kill or growth inhibition, and reflects the anti-cancer activity of the test compound. Briefly, tumor cells were cultured in petri dishes in methylcellulose, with or without a phosphonate test compound, and the number of colonies formed during a 5-day incubation period were counted.
# The efficacy of 4-hexadecylthio-3-methoxybutane phosphonocholine on the growth of a mouse […] tumor was evaluated. The P388 cell line was cultured in a soft agar in the presence and absence of various concentrations of thioalkylphosphonate for 5 days, the number of tumor colonies formed during this period of time was registered.
# L1210 tumor cells = assay: colonogenic cell survival assay; type: cell-based; details: Mus musculus, 120 h, L1210, read-out: Colonies formed after 5 days (% of control)
# Experimental: as §1
# The effectiveness of S-thioalkylphosphonate on the growth of a lymphoma cell line was also investigated. L1210 is a mouse B-Cell tumor (lymphoma), was tested in soft agar for susceptibility to the cytotoxic action of thioalkylphosphonate.
# WEHI-3B tumor cells [1] = assay: colonogenic cell survival assay; type: cell-based; details: Mus musculus, WEHI3B, 120 h, WEHI-3B, read-out: Colonies formed after 5 days (% of control)
# Experimental: as §1
# Table 17 tabulates data obtained with two differrent phosphonate analogs using a colonogenic assay. Colonogenic assay is one of the most trusted tests for determination of effectiveness of an anti-cancer agent. The test is based on the formation of tumor colonies in vitro in a methyl cellulose or soft agar medium. The following results were obtained with the formation of colonies in methyl cellulose medium after five days in the presence or absence of four phosphonate analogs, two with a thioalkyl chain and two with an alkyloxy chain.
# WEHI-3B tumor = WEHI-3B tumor growth in BALB/C mice; type: in vivo; details: for Tumor volume in cm^3: 500 μg (approx. 25 mg/Kg) daily IM
# Experimental: After 3 days one group (n=5) of mice received 500 μg (approximately 25 mg/Kg body weight) of the phosphonate compound of the following formula daily by intramuscular (IM) injection. The size of the resulting tumor was measured using a caliper: [drawing 17]
# WEHI-3B tumor cells [2] = assay: 3H-thymidine incorporation assay; type: cell-based; details: Mus musculus, WEHI3B, read-out: Thymidine uptake (% of control)
# Experimental: (§2) Experiments were performed using a number of different rumor cell lines. Tumor cells were cultured in RPMI-1640 medium supplemented with 10% fetal bovine serum, penicillin (50 units/mL), streptomycin (50 μg/mL) and mercaptoethanol (5 μg/mL) in an atmosphere of 5% CO2. The cells were passaged weekly by serial 1/10 to 1/10,000 dilutions. The cell viability and growth were constantly monitored by staining with trypan blue exclusion dye or the incorporation of tritiated thymidine.
# (§3) Inhibition of ^3 H-thymidine incorporation into the DNA of cells by a test compound is an indirect measurement of cell kill or growth inhibition, and reflects the anti-cancer activity of the compound.
# Tumor cells (2×104 ^4 cells/well) were placed in 200 μL of medium in 96-well plastic microtiter plates; a further 5 μL of medium either with or without phosphonate was added. […] The cells were then harvested using a Brandel cell harvester (model M-12) and collected on Whatman glass microfilters. The radioactivity associated with the filters was quantified in a liquid scintillation counter, and the amount of ^3 H-thymidine incorporated into tumor cells treated with the phosphonate compound was calculated as a percentage of the amount of ^3 H-thymidine incorporated into untreated tumor cells.
# The biological activities of 4-hexadecylthio-3(S ) -3-methoxybutane-l-phosponocholine and its enantiomer 4-hexadecylthio-3(R)-3-methoxybutane-1-phosphonocholine were studied on several cancer cell lines. […] The cell viability, was determined as percent[^3 H]thymidine uptake into the cell DNA. The following results are mean of five samples ± S.D.
# C-41 tumor cells = assay: 3H-thymidine incorporation assay; type: cell-based; details: Homo sapiens, read-out: Thymidine uptake (% of control)
# Experimental: as §2, §3
# Tumor cells (2×104 ^4 cells/well) were placed in 200 μL of medium in 96-well plastic microtiter plates; a further 5 μL of medium either with or without phosphonate was added. After incubation for 24, 48 or 72 hours at 37° C. in a humidified atmosphere containing 5% CO2, the wells were pulsed with 0.1 μCi of ^3 H-thymidine for an additional 24 hours. The cells were then harvested using a Brandel cell harvester (model M-12) and collected on Whatman glass microfilters. The radioactivity associated with the filters was quantified in a liquid scintillation counter, and the amount of ^3 H-thymidine incorporated into tumor cells treated with the phosphonate compound was calculated as a percentage of the amount of ^3 H-thymidine incorporated into untreated tumor cells.
# It has been discovered that a phosphonate compound of the following structure: [drawing 21] inhibits thymidine incorporation into DNA of a human cervical carcinoma (C-41 ) cell line. This effect is indicative of the anti-cancer activity of the above compound.
# [3] = test system: Lewis lung carcinoma cells; assay: LLC tumor growth in BALB/C mice; type: in vivo; details: for Tumor volume (mm^3): 50 mg/day orally once a day from day 3
# Experimental: BALB/C mice were injected with […] lung carcinoma cells under the skin at the back. Three days after injection of the rumor cells, treatment with the phosphonate shown above (compound VI) (50 mg/day orally once a day) was initiated in one group of mice, while a second group of mice received only the carrier, mucilage of tragacanth.
smiles,measurement,setting,value
CCCCCCCCCCCCCCCCOCC(CP(=O)([O-])OCC[N+](C)(C)C)OC (centres unmarked) [compound VII],activity at 1.25 µM,P388 tumor cells; 1.25 μM,88 ± 6%
same,activity at 2.5 µM,P388 tumor cells; 2.5 μM,79 ± 8%
same,activity at 5 µM,P388 tumor cells; 5 μM,61 ± 7%
same,activity at 10 µM,P388 tumor cells; 10 μM,56 ± 7%
same,activity at 20 µM,P388 tumor cells; 20 μM,29 ± 4%
same,activity at 40 µM,P388 tumor cells; 40 μM,16 ± 2%
same,activity at 1.25 µM,L1210 tumor cells; 1.25 μM,91 ± 7%
same,activity at 2.5 µM,L1210 tumor cells; 2.5 μM,80 ± 11%
same,activity at 5 µM,L1210 tumor cells; 5 μM,55 ± 4%
same,activity at 10 µM,L1210 tumor cells; 10 μM,42 ± 5%
same,activity at 20 µM,L1210 tumor cells; 20 μM,22 ± 3%
same,activity at 40 µM,L1210 tumor cells; 40 μM,14 ± 5%
same,activity at 1.25 µM,WEHI-3B tumor cells [1]; 1.25 μM,88%
same,activity at 2.5 µM,WEHI-3B tumor cells [1]; 2.5 μM,60%
same,activity at 5 µM,WEHI-3B tumor cells [1]; 5 μM,48%
same,activity at 10 µM,WEHI-3B tumor cells [1]; 10 μM,34%
same,activity at 20 µM,WEHI-3B tumor cells [1]; 20 μM,13%
same,activity at 40 µM,WEHI-3B tumor cells [1]; 40 μM,2%
same,effect on tumor growth (in words),"WEHI-3B tumor; 25 mg/Kg body weight per day, intramuscularly",delayed the onset of tumor growth and reduced the tumor growth significantly
same,Tumor volume in cm^3,WEHI-3B tumor; day 3 after implantation,0.000 ± 0.000 cm^3
same,Tumor volume in cm^3,WEHI-3B tumor; day 15 after implantation,0.000 ± 0.000 cm^3
same,Tumor volume in cm^3,WEHI-3B tumor; day 17 after implantation,0.000 ± 0.000 cm^3
same,Tumor volume in cm^3,WEHI-3B tumor; day 20 after implantation,0.036 ± 0.010 cm^3
same,Tumor volume in cm^3,WEHI-3B tumor; day 22 after implantation,0.117 ± 0.017 cm^3
same,Tumor volume in cm^3,WEHI-3B tumor; day 24 after implantation,0.172 ± 0.025 cm^3
CCCCCCCCCCCCCCCCCCOCC(CCP(=O)([O-])OCC[N+](C)(C)C)OC (centres unmarked) [compound VI],activity at 1.25 µM,"WEHI-3B tumor cells [2]; 24 h, Day 1",95%
same,activity at 2.5 µM,"WEHI-3B tumor cells [2]; 24 h, Day 1",72%
same,activity at 5 µM,"WEHI-3B tumor cells [2]; 24 h, Day 1",34%
same,activity at 10 µM,"WEHI-3B tumor cells [2]; 24 h, Day 1",18%
same,activity at 20 µM,"WEHI-3B tumor cells [2]; 24 h, Day 1",8%
same,activity at 40 µM,"WEHI-3B tumor cells [2]; 24 h, Day 1",3%
same,activity at 1.25 µM,"WEHI-3B tumor cells [2]; 48 h, Day 2",84%
same,activity at 2.5 µM,"WEHI-3B tumor cells [2]; 48 h, Day 2",67%
same,activity at 5 µM,"WEHI-3B tumor cells [2]; 48 h, Day 2",22%
same,activity at 10 µM,"WEHI-3B tumor cells [2]; 48 h, Day 2",13%
same,activity at 20 µM,"WEHI-3B tumor cells [2]; 48 h, Day 2",2%
same,activity at 40 µM,"WEHI-3B tumor cells [2]; 48 h, Day 2",2%
same,activity at 1.25 µM,"WEHI-3B tumor cells [2]; 72 h, Day 3",77%
same,activity at 2.5 µM,"WEHI-3B tumor cells [2]; 72 h, Day 3",54%
same,activity at 5 µM,"WEHI-3B tumor cells [2]; 72 h, Day 3",12%
same,activity at 10 µM,"WEHI-3B tumor cells [2]; 72 h, Day 3",10%
same,activity at 20 µM,"WEHI-3B tumor cells [2]; 72 h, Day 3",1%
same,activity at 40 µM,"WEHI-3B tumor cells [2]; 72 h, Day 3",2%
same,activity at 2.5 µM,"C-41 tumor cells; C4-1, 2.5 μM",88%
same,activity at 5 µM,"C-41 tumor cells; C4-1, 5 μM",63%
same,activity at 10 µM,"C-41 tumor cells; C4-1, 10 μM",42%
same,activity at 20 µM,"C-41 tumor cells; C4-1, 20 μM",41%
same,activity at 40 µM,"C-41 tumor cells; C4-1, 40 μM",16%
same,Tumor volume (mm^3),[3]; day 0 after tumor injection,0 mm^3
same,Tumor volume (mm^3),[3]; day 7 after tumor injection,0 mm^3
same,Tumor volume (mm^3),[3]; day 10 after tumor injection,0 mm^3
same,Tumor volume (mm^3),[3]; day 17 after tumor injection,100 mm^3
same,Tumor volume (mm^3),[3]; day 18 after tumor injection,175 mm^3
same,Tumor volume (mm^3),[3]; day 20 after tumor injection,252 mm^3
same,Tumor volume (mm^3),[3]; day 22 after tumor injection,500 mm^3
same,retardation of tumor growth,"[3]; versus untreated animals, 50 mg/day orally once a day",approximately 6 days
